The values below come from the supplement of paper PMC11208160.
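Also: IS621 bridge recombinase in Escherichia coli cells against a fixed T5 target plasmid.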

This data set in a line: recombinant UMI read abundance after kanamycin selection (control-corrected) (log10(CPM+1)); higher = more efficient recombination; extreme values may be limits of the assay; sequences stand for … in AGTGCAGAGAAAATCGGCCAGTTTTCTCTGCCTGCAGTCCGCATGCCGTGGGACCCCTTGGGTTCTAACCTGTTGCCTAGATTTATGCAGCGGACTGCCTTTCTCCCAAAGTGATAAACCGG…AGGTTGGTTTCACT; site = the 11-nt donor. The gist of the method: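 In Escherichia coli, a pool of donor and donor-binding-loop pairs, each with a 12-nt UMI, was tested for the IS621 bridge recombinase. Plating was on IPTG (0.07 mM) plus kanamycin, or without selection, in two replicates. Recombinant UMIs were amplified by PCR across the donor–target junction and sequenced, and counts were reported as log10(CPM+1) after averaging and control-derived scaling.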
For the sequence “TTCAATTCATGGACCGGTTTTCCCGGTAATCCGTATTTGGG (site TTCAATTCTCC)”, the “recombinant UMI read abundance (log10)” value amounted to 0.
As for “TTCCACCCATGGACCGGTTTTCCCGGTAATCCGTATTTGTA (site TTCCACCCTTA)”, the figure is 0.00477; as for “TTCCAGGCATGGACCGGTTTTCCCGGTAATCCGTATTTGAG (site TTCCAGGCTCT)”, 0.0112.
On to “TTCCCGCCATGGACCGGTTTTCCCGGTAATCCGTATTTGAA (site TTCCCGCCTTT)”, for which the “recombinant UMI read abundance (log10)” value was determined as 0.0206.
For the sequence “TTCCCTTCATGGACCGGTTTTCCCGGTAATCCGTATTTGTA (site TTCCCTTCTTA)”, the “recombinant UMI read abundance (log10)” value stood at 0.
In the case of “TTCCGAACATGGACCGGTTTTCCCGGTAATCCGTATTTGGT (site TTCCGAACTAC)”, the “recombinant UMI read abundance (log10)” value is 0.00692.
Take “TTCCTGGCATGGACCGGTTTTCCCGGTAATCCGTATTTGAG (site TTCCTGGCTCT)”: the “recombinant UMI read abundance (log10)” value was found to be 0.00387.
Take “TTCCTGTCATGGACCGGTTTTCCCGGTAATCCGTATTTGAA (site TTCCTGTCTTT)”: the “recombinant UMI read abundance (log10)” value is 0.0685.
As for “TTCGCCACATGGACCGGTTTTCCCGGTAATCCGTATTTGAG (site TTCGCCACTCT)”, the figure is 0; as for “TTCGCTACATGGACCGGTTTTCCCGGTAATCCGTATTTGGC (site TTCGCTACTGC)”, 0; as for “TTCGGATCATGGACCGGTTTTCCCGGTAATCCGTATTTGCT (site TTCGGATCTAG)”, 0.
Consider “TTCGGGCCATGGACCGGTTTTCCCGGTAATCCGTATTTGCC (site TTCGGGCCTGG)”, for which the “recombinant UMI read abundance (log10)” value was determined as 0.
Regarding “TTCGTATCATGGACCGGTTTTCCCGGTAATCCGTATTTGAC (site CTAGTATCTGT)”, the “recombinant UMI read abundance (log10)” value was determined as 0.
“TTCGTATCATGGACCGGTTTTCCCGGTAATCCGTATTTGAC (site TTCGTATCTGT)”: the “recombinant UMI read abundance (log10)” value was determined as 0.
Consider “TTCTGAGCATGGACCGGTTTTCCCGGTAATCCGTATTTGCT (site TTCTGAGCTAG)”, for which the “recombinant UMI read abundance (log10)” value is 0.802.
As for “TTCTTCGCATGGACCGGTTTTCCCGGTAATCCGTATTTGCG (site TTCTTCGCTCG)”, the “recombinant UMI read abundance (log10)” value is 0.00387.
As for “TTGAATCCATGGACCGGTTTTCCCGGTAATCCGTATTTGTT (site CGGAATCCTAA)”, the figure is 0; as for “TTGAATCCATGGACCGGTTTTCCCGGTAATCCGTATTTGTT (site TTGAATCCTAA)”, 0.901.
As to “TTGAATTCATGGACCGGTTTTCCCGGTAATCCGTATTTGTT (site TTGAATTCTAA)”, the “recombinant UMI read abundance (log10)” value is 0.
For the sequence “TTGCACGCATGGACCGGTTTTCCCGGTAATCCGTATTTGGT (site TTGCACGCTAC)”, the “recombinant UMI read abundance (log10)” value came to 0.647.
To “TTGCCGTCATGGACCGGTTTTCCCGGTAATCCGTATTTGGT (site TTGCCGTCTAC)” belongs 0.144.
As for “TTGCCTTCATGGACCGGTTTTCCCGGTAATCCGTATTTGGT (site TAGCCTTCTAC)”, the “recombinant UMI read abundance (log10)” value was 0.0133.
With “TTGCCTTCATGGACCGGTTTTCCCGGTAATCCGTATTTGGT (site TCGCCTTCTAC)”, the “recombinant UMI read abundance (log10)” value was found to be 0.00778.
Regarding “TTGCCTTCATGGACCGGTTTTCCCGGTAATCCGTATTTGGT (site TGGCCTTCTAC)”, the “recombinant UMI read abundance (log10)” value was 0.0098.
Turning to “TTGCCTTCATGGACCGGTTTTCCCGGTAATCCGTATTTGGT (site TTGCCTTCTAC)”, the “recombinant UMI read abundance (log10)” value amounted to 0.00638.
“TTGCGGGCATGGACCGGTTTTCCCGGTAATCCGTATTTGGA (site TTGCGGGCTTC)”: the “recombinant UMI read abundance (log10)” value came out at 0.00996.
Regarding “TTGCGGGCATGGACCGGTTTTCCCGGTAATCCGTATTTGGG (site TTGCGGGCTCC)”, the “recombinant UMI read abundance (log10)” value was 0.00376.
As for “TTGCGTTCATGGACCGGTTTTCCCGGTAATCCGTATTTGTC (site TTGCGTTCTGA)”, the figure is 0.
Turning to “TTGCTGGCATGGACCGGTTTTCCCGGTAATCCGTATTTGAG (site TTGCTGGCTCT)”, the “recombinant UMI read abundance (log10)” value amounted to 0.
Turning to “TTGCTTACATGGACCGGTTTTCCCGGTAATCCGTATTTGAC (site TTGCTTACTGT)”, the “recombinant UMI read abundance (log10)” value was 0.
“TTGGAATCATGGACCGGTTTTCCCGGTAATCCGTATTTGCG (site TAGGAATCTCG)”: the “recombinant UMI read abundance (log10)” value turned out to be 1.81.
“TTGGAATCATGGACCGGTTTTCCCGGTAATCCGTATTTGCG (site TCGGAATCTCG)”: the “recombinant UMI read abundance (log10)” value stood at 0.968.
“TTGGAATCATGGACCGGTTTTCCCGGTAATCCGTATTTGCG (site TGGGAATCTCG)”: the “recombinant UMI read abundance (log10)” value stood at 0.00536.
As for “TTGGAATCATGGACCGGTTTTCCCGGTAATCCGTATTTGCG (site TTGGAATCTCG)”, the figure is 2.27; as for “TTGGCAACATGGACCGGTTTTCCCGGTAATCCGTATTTGCT (site TTGGCAACTAG)”, 0.0704.
To “TTGGCTGCATGGACCGGTTTTCCCGGTAATCCGTATTTGTG (site TTAGCTGCTCA)” belongs 0.0254; to “TTGGCTGCATGGACCGGTTTTCCCGGTAATCCGTATTTGTG (site TTCGCTGCTCA)”, 0.0142; to “TTGGCTGCATGGACCGGTTTTCCCGGTAATCCGTATTTGTG (site TTGGCTGCTCA)”, 0.00853.
For “TTGGCTGCATGGACCGGTTTTCCCGGTAATCCGTATTTGTG (site TTTGCTGCTCA)”, the “recombinant UMI read abundance (log10)” value is 0.0121.
“TTGGTAACATGGACCGGTTTTCCCGGTAATCCGTATTTGAG (site TTGGTAACTCT)”: the “recombinant UMI read abundance (log10)” value is 0.734.
Take “TTGGTACCATGGACCGGTTTTCCCGGTAATCCGTATTTGCA (site TTGGTACCTTG)”: the “recombinant UMI read abundance (log10)” value is 0.00424.
In the case of “TTGGTTCCATGGACCGGTTTTCCCGGTAATCCGTATTTGTG (site TTGGTTCCTCA)”, the “recombinant UMI read abundance (log10)” value was determined as 0.0354.
On to “TTGTAAGCATGGACCGGTTTTCCCGGTAATCCGTATTTGCA (site TTGTAAGCTTG)”, for which the “recombinant UMI read abundance (log10)” value was found to be 1.17.
For the sequence “TTGTCGACATGGACCGGTTTTCCCGGTAATCCGTATTTGTC (site TTGTCGACTGA)”, the “recombinant UMI read abundance (log10)” value came to 0.433.
As for “TTGTGCTCATGGACCGGTTTTCCCGGTAATCCGTATTTGGG (site TTGTGCTCTCC)”, the figure is 0.0159; as for “TTTAGCCCATGGACCGGTTTTCCCGGTAATCCGTATTTGCT (site TTTAGCCCTAG)”, 0.
As to “TTTATAGCATGGACCGGTTTTCCCGGTAATCCGTATTTGCG (site TTTATAGCTCG)”, the “recombinant UMI read abundance (log10)” value stood at 0.232.
Turning to “TTTCACACATGGACCGGTTTTCCCGGTAATCCGTATTTGGA (site TTTCACACTTC)”, the “recombinant UMI read abundance (log10)” value amounted to 0.0104.
To “TTTCACGCATGGACCGGTTTTCCCGGTAATCCGTATTTGGT (site TTTCACGCTAC)” belongs 0.0228; to “TTTCCTCCATGGACCGGTTTTCCCGGTAATCCGTATTTGCG (site TTTCCTCCTCG)”, 0.0281; to “TTTCGAGCATGGACCGGTTTTCCCGGTAATCCGTATTTGCA (site ATTCGAGCTTG)”, 0.411.
Turning to “TTTCGAGCATGGACCGGTTTTCCCGGTAATCCGTATTTGCA (site CTTCGAGCTTG)”, the “recombinant UMI read abundance (log10)” value stood at 0.13.
